SMILES strings stand for the structures. Read-outs that look alike come from different tables or passages of the source.

These results are taken from patent US12110294B2, “CD73 compounds” (Gilead Sciences, Inc., priority 2020, dated 2024).

The target in experiment [1] is T1, CD73 (Homo sapiens, UniProt P21589).
T1 construct: purchased R&D system
T1 sequence (P21589 27-549): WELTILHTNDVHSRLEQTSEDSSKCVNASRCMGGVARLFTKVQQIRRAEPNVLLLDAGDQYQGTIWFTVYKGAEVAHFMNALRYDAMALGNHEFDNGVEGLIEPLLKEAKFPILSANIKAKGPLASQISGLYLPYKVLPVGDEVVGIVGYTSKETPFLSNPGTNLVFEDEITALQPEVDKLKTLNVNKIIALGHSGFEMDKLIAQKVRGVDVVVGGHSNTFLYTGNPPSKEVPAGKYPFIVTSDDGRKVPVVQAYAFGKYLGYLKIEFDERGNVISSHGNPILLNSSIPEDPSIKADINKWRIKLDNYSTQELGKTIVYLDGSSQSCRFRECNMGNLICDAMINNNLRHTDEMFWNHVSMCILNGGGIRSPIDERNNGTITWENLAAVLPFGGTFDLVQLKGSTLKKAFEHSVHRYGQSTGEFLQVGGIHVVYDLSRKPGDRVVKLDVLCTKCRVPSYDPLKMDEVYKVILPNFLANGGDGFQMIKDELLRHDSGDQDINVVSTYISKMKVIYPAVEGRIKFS
Kind of experiment: CD73 Biochemical IC50 Assay. The note with it: final AMP 15 uM, final CD73 0.3 nM, 25 mM Tris pH 7.4, 5 mM MgCl2, no phosphate. The method, then: CD73 Biochemical IC50 Assay
Compound serial dilutions were pre-spotted into Thermo Nunc assay plate. 50 μL CD73 enzyme buffer (CD73 purchased from R&D system=0.6 nM, 25 mM Tris, pH 7.4, 5 mM MgCl2) was added into the assay plate and incubated for 15 mins. […] The samples were run using Rapid fire.

Experiment [2] has as its target T1, CD73. In kind it is biochemical. To be noted: 1 mM NaH2PO4 in enzyme buffer, final AMP 15 uM, final CD73 0.3 nM.

Regarding `O=c1[nH]cc(-c2cc([C@@H]3CC34CCC4)c3nccn3n2)c(=O)[nH]1` (racemic) [Example 5, (S)-5-(8-(spiro[2.3]hexan-1-yl)imidazo[1,2-b]pyridazin-6-yl)pyrimidine-2,4(1H,3H)-dione and (R)-5-(8-(spiro[2.3]hexan-1-yl)imidazo[1,2-b]pyridazin-6-yl)pyrimidine-2,4(1H,3H)-dione], at CD73 [1], the IC50 was at least 2500 nM. On to `O=c1[nH]cc(-c2cc([C@@H]3C[C@H]3c3ccc(OC(F)(F)F)cc3)c3nccn3n2)c(=O)[nH]1` (racemic) [Example 48, 5-(8-((2S,2S)-2-(4-(trifluoromethoxy)phenyl)cyclopropyl)imidazo[1,2-b]pyridazin-6-yl)pyrimidine-2,4(1H,3H)-dione and 5-(8-((1R,2R)-2-(4-(trifluoromethoxy)phenyl)cyclopropyl)imidazo[1,2-b]pyridazin-6-yl)pyrimidine-2,4(1H,3H)-dione], for which the figures for the IC50 at CD73 [1] and against CD73 [2] were 52.5 nM and 2.73 nM, respectively. Turning to `N#Cc1cc([C@@H]2C[C@H]2c2cc(-c3c[nH]c(=O)[nH]c3=O)nn3ccnc23)ccc1F` (racemic) [Example 64, 5-((2S,2S)-2-(6-(2,4-dioxo-1,2,3,4-tetrahydropyrimidin-5-yl)imidazo[1,2-b]pyridazin-8-yl)cyclopropyl)-2-fluorobenzonitrile and 54(1R,2R)-2-(6-(2,4-dioxo-1,2,3,4-tetrahydropyrimidin-5-yl)imidazo[1,2-b]pyridazin-8-yl)cyclopropyl)-2-fluorobenzonitrile], the figures for the 50% inhibitory concentration (IC50) against CD73 [1] and on CD73 [2] were 14.7 nM and 1.5 nM, respectively. `O=c1[nH]cc(-c2cc([C@@H]3C[C@H]3c3ccc(C(F)(F)F)c(F)c3)c3nccn3n2)c(=O)[nH]1` (racemic) [Example 100, 5-(8-((2S,2S)-2-(3-fluoro-4-(trifluoromethyl)phenyl)cyclopropyl)imidazo[1,2-b]pyridazin-6-yl)pyrimidine-2,4(1H,3H)-dione and 5-(8-((1R,2R)-2-(3-fluoro-4-(trifluoromethyl)phenyl)cyclopropyl)imidazo[1,2-b]pyridazin-6-yl)pyrimidine-2,4(1H,3H)-dione] had a half-inhibitory concentration (IC50) at CD73 [1] of 98.4 nM. That is a double-digit nanomolar value. `COc1ccccc1[C@@H]1C[C@H]1c1cc(-c2c[nH]c(=O)[nH]c2=O)nn2ccnc12` (racemic) [Example 101, 5-(8-((2S,2S)-2-(2-methoxyphenyl)cyclopropyl)imidazo[1,2-b]pyridazin-6-yl)pyrimidine-2,4(1H,3H)-dione and 5-(8-((1R,2R)-2-(2-methoxyphenyl)cyclopropyl)imidazo[1,2-b]pyridazin-6-yl)pyrimidine-2,4(1H,3H)-dione]: half-maximal inhibition on CD73 [1] (IC50) required 15.9 nM. Molecule `O=c1[nH]cc(-c2cc([C@@H]3C[C@H]3C3CC(F)(F)C3)c3nccn3n2)c(=O)[nH]1` (racemic) [Example 106, 5-(8-((1S,2R)-2-(3,3-difluorocyclobutyl)cyclopropyl)imidazo[1,2-b]pyridazin-6-yl)pyrimidine-2,4(1H,3H)-dione and 5-(8-((1R,2S)-2-(3,3-difluorocyclobutyl)cyclopropyl)imidazo[1,2-b]pyridazin-6-yl)pyrimidine-2,4(1H,3H)-dione] gave an IC50 against CD73 [1] of 105 nM. For the molecule `O=c1[nH]cc(-c2cc([C@@H]3C[C@H]3C(F)(F)F)c3nccn3n2)c(=O)[nH]1` (racemic) [Example 107, 5-(8-((2S,2S)-2-(trifluoromethyl)cyclopropyl)imidazo[1,2-b]pyridazin-6-yl)pyrimidine-2,4(1H,3H)-dione and 5-(8-((1R,2R)-2-(trifluoromethyl)cyclopropyl)imidazo[1,2-b]pyridazin-6-yl)pyrimidine-2,4(1H,3H)-dione], at CD73 [1], half-maximal inhibition (IC50) required 46.8 nM. `O=c1[nH]cc(-c2cc([C@@H]3C[C@@]3(F)c3ccccc3)c3nccn3n2)c(=O)[nH]1` (racemic) [Example 108, 5-(8-((1R,2R)-2-fluoro-2-phenylcyclopropyl)imidazo[1,2-b]pyridazin-6-yl)pyrimidine-2,4(1H,3H)-dione and 5-(8-((1S,2S)-2-fluoro-2-phenylcyclopropyl)imidazo[1,2-b]pyridazin-6-yl)pyrimidine-2,4(1H,3H)-dione] came in with an IC50 on CD73 [1] of 35 nM. The IC50 values of the last two molecules are within 1.5-fold of each other.

By IC50 is commonly meant the concentration that gives 50% inhibition. Lower therefore signals greater potency in that assay.
